Earlier results on nine molecules are cited in patent US12379360B2, “Detection system for an electronic nose allowing a physicochemical classification of odours and electronic nose comprising such a system” (COMMISSARIAT À L'ÉNERGIE ATOMIQUE ET AUX ÉNERGIES …, priority 2019, dated 2025).

For orientation: logP means the decadic logarithm of the partition coefficient of the neutral form, usually between octanol and water.

For data set [1] the following is noted: scale of R. M. Sweet and D. Eisenberg, reference [4].
For data set [2] the following is noted: pure compound.
For data set [3] the following is noted: n-octanol/water partition coefficient.

On to `NC(=O)C[C@H](N)C(=O)O` [asparagine], for which the hydrophobicity index in data set [1] was −0.74.
On to `CN(C)C` [TMA, trimethylamine], for which, in data set [2], the “n (refractive index)” value is on record as 1.3631. Besides, in data set [3], the logP is given as 0.3.
`CCCSCCC` [DPS, dipropylsulphide]: the “n (refractive index)” value in data set [2] is 1.435. Further, the log partition coefficient (logP) in data set [3] is reported as 0.9.
Turning to `NCCCCCN` [DAP, 1,5-diaminopentane], in data set [2], the “n (refractive index)” value is 1.458. Also, the logP in data set [3] was −0.6.
On to `O=C(O)[C@@H]1CCCN1` [proline], for which the hydrophobicity index in data set [1] is on record as 0.12.
As to `CCCCCN` [n-PA, n-pentylamine], in data set [2], the “n (refractive index)” value is 1.411. The log partition coefficient (logP) in data set [3] is 1.5.
Regarding `CSC` [DMS, dimethylsulphide], the “n (refractive index)” value in data set [2] is recorded as 1.4487. Further, the logP in data set [3] is listed as 2.7.
For the molecule `CCN(CC)CC` [TEA, triethylamine], in data set [2], the “n (refractive index)” value is reported as 1.401. The logP in data set [3] was 1.4.
For the molecule `NCCCCN` [DAB, 1,4-diaminobutane], the “n (refractive index)” value in data set [2] is recorded as 1.457. Also, the logP in data set [3] is given as −0.9.
